This note sets out measurements from ChEMBL document CHEMBL5550169, “A consensus reverse docking approach for identification of a competitive inhibitor of acetyltransferase enhanced intracellular survival protein from Mycobacterium tuberculosis” (Bioorg Med Chem, 2024).

Broadly, the Cmax is the peak of the concentration-time curve. As a reminder, the MIC is the lowest concentration that inhibits growth of the organism. As usually defined, the Tmax is the time from dosing to the highest level.

≈ marks a conversion by molar mass, not a printed value.

Series [1] is described as follows: Cmax in female BALB/c mouse lungs at 100 mg/kg, po administered as single dose via oral gavage and measured upto 24 hrs by LC-MS analysis. The note with it: lung. It is filed as ADME, organism-based.
The test system of series [2] is Mycobacterium tuberculosis. Kind of series: Antibacterial activity against Mycobacterium tuberculosis IAR2 assessed as reduction in pellet formation measured after 7 to 14 days by alamar blue assay. In kind it is functional. The note with it: time 7-14 day.
Series [3] in a line: Tmax in female BALB/c mouse plasma at 100 mg/kg, po administered as single dose via oral gavage and measured upto 24 hrs by LC-MS analysis. In kind it is ADME, organism-based.
A short description of series [4]: Tmax in female BALB/c mouse lungs at 100 mg/kg, po administered as single dose via oral gavage and measured upto 24 hrs by LC-MS analysis. It is filed as ADME, organism-based. To be noted: lung.
The nature of series [5]: Cmax in female BALB/c mouse plasma at 100 mg/kg, po administered as single dose via oral gavage and measured upto 24 hrs by LC-MS analysis. It is filed as ADME, organism-based.
In series [6] the test system is Mycobacterium tuberculosis. Description: Antibacterial activity against Mycobacterium tuberculosis H37Rv assessed as reduction in pellet formation measured after 7 to 14 days by alamar blue assay. The note with it: time 7-14 day. In kind it is functional. In general terms: The colour change of resazurin is a common sign of viable cells or microbes.

For `Cc1cc(C)c2c(C(=O)NC3CCCCCCC3)c[nH]c2c1`, the Cmax is 2470 ng/mL in series [1] and 490 ng/mL in series [5]. The MIC in series [2] is no less than 250 ng/mL; in series [6], 4 ng/mL (≈ 0.0134 µM). Moreover, the figures for the Tmax in series [3] and in series [4] were 2 h and 4 h, respectively.
